Measured values from US20090263339A1, “AGENT FOR EXTERNAL APPLICATION TO THE SKIN” (KABUSHIKI KAISHA HAYASHIBARA SEIBUTSU KAGAKU KENKY, priority 2005, published 2009).
Values after ≈ are worked out from the molar mass of the structure shown. Where two headings read alike, the source gives them in different places.

How the values were obtained:
[1] = test system: B16 melanoma cells of mouse; assay: Effect of indigo-plant extract and other skin-whitening ingredient on melanin production (Experiment 2); format: cell-based; parameters: Efficacy with 1.25% of indigo-plant extract: key: −: Not changed; ±: Slightly suppressing blackening; +: Moderately suppressing blackening; ++: Significantly suppressing blackening; +++: Completely suppressing blackening; settings: for Efficacy with 1.25% of indigo-plant extract: 72 hours; for Efficacy without indigo-plant extract: cultured 72 hours; as to Efficacy without indigo-plant extract: key: −: Not changed; ±: Slightly suppressing blackening; +: Moderately suppressing blackening; ++: Significantly suppressing blackening; +++: Completely suppressing blackening
Description: The criterion for evaluation of blackening:
The following experiment was carried out to investigate the skin-whitening effect of indigo-plant extract and other skin-whitening ingredient. After B16 melanoma cells of mouse were cultured for 24 hours, the test samples were added to the medium alone or along with 1.25% of the indigo-plant extract to give the concentrations described in Table 2, the cells were cultured for additional 72 hours. After the number of the living cells was counted, a color of the cells packed in capillary was observed. The effect was evaluated on the same criterion in Experiment 1. When the experiment was conducted using 1.25% of the indigo-plant extract, the effect was evaluated as “+”.

A. actinomycetemcomitans [2] = assay: MIC to dental bacteria, agar plate dilution; format: cell-based, Actinobacillus actinomycetemcomitans; settings: Aggregatibacter actinomycetemcomitans
Description: (§1) The following experiment was carried out to investigate the effect of indigo-plant extract on human dental bacteria. Two parts by weight of shredded whole indigo plant was added with three parts by weight of purified water and stirred at a room temperature for 10 minutes to prepare the extract. The supernatant obtained by centrifugation was autoclaved at 120° C. for 20 minutes. After autoclaved, the supernatant obtained by centrifugation was filtrated to give an indigo-plant extract (solid content of 1.41%). The minimum inhibitory concentration (hereinafter, occasionally abbreviated as “MIC”) of the extract to dental bacteria (periodontal disease bacteria and caries bacteria) was determined. Also MIC of tryptanthrin, gallic acid and caffeic acid, which are found to be contained in the indigo-plant extract to dental bacteria. The measurement of MIC was conducted by the method described below.
(§2) MIC of the indigo-plant extract, tirptanthrin, gallic acid and caffeic acid was determined according to the standard method of Japanese Society of Chemotherapy (q.v. “Saikin-Shinkin Kensa” (Second edition), issued by Japan Public Health Association, pp. 524-529 (1982)). For periodontal disease bacteria, Prophyromonas gingivalis JCM8525, JCM12257 and ATCC33277, Actinobacillus actinomycetemcomitans (hereinafter, occasionally abbreviated as “A. actinomycetemcomitans”) JCM2434 and JCM8577, Prevotella intermedia (hereinafter, occasionally abbreviated as “P. intermedia”) JCM7365, and Campylobacter rectus (hereinafter, occasionally abbreviated as “C. rectus”) JCM6301 were used. For caries bacteria, Streptococcus mutans OMZ-175, OMZ-176, OMZ-65, OMZ-61, B-13D and Ingbritt, and Streptococcus sorbrinus (hereinafter, occasionally abbreviated as “S. sorbrinus”) 6715 were used. These bacteria were anaerobically cultured in Brain Heart Infusion medium (commercialized by Difco Laboratories Inc., hereinafter abbreviated as “BHI”) at 37° C. for 48 hours for periodontal disease bacteria or for 18 to 24 hours for caries bacteria. The broth of periodontal disease bacteria and caries bacteria was diluted to give the bacteria suspensions containing 10^8 cells/ml and 10^6 cells/ml, respectively. Five μl of any one of these suspension was inoculated on BHI agar plate containing various concentration of the indigo-plant extract, tryptanthrin, gallic acid or caffeic acid and anaerobically cultured at 37° C. for 24 hours.

C. rectus = assay: MIC to dental bacteria, agar plate dilution; format: cell-based; settings: Campylobacter rectus, read-out: Minimum Inhibitory Concentration (MIC)
Description: as §1, §2

P. intermedia = assay: MIC to dental bacteria, agar plate dilution; format: cell-based; settings: Prevotella intermedia, read-out: Minimum Inhibitory Concentration (MIC)
Description: as §1, §2

S. mutans = assay: MIC to dental bacteria, agar plate dilution; format: cell-based; settings: Streptococcus mutans
Description: as §1, §2

S. sobrinus = assay: MIC to dental bacteria, agar plate dilution; format: cell-based, Streptococcus sorbrinus; settings: Streptococcus sobrinus, read-out: Minimum Inhibitory Concentration (MIC)
Description: as §1
MIC of the indigo-plant extract, tirptanthrin, gallic acid and caffeic acid was determined according to the standard method of Japanese Society of Chemotherapy (q.v. “Saikin-Shinkin Kensa” (Second edition), issued by Japan Public Health Association, pp. 524-529 (1982)). For periodontal disease bacteria, Prophyromonas gingivalis JCM8525, JCM12257 and ATCC33277, Actinobacillus actinomycetemcomitans (hereinafter, occasionally abbreviated as “A. actinomycetemcomitans”) JCM2434 and JCM8577, Prevotella intermedia (hereinafter, occasionally abbreviated as “P. intermedia”) JCM7365, and Campylobacter rectus (hereinafter, occasionally abbreviated as “C. rectus”) JCM6301 were used. For caries bacteria, Streptococcus mutans OMZ-175, OMZ-176, OMZ-65, OMZ-61, B-13D and Ingbritt, and Streptococcus sorbrinus (hereinafter, occasionally abbreviated as “S. sorbrinus”) 6715 were used. These bacteria were anaerobically cultured in Brain Heart Infusion medium (commercialized by Difco Laboratories Inc., hereinafter abbreviated as “BHI”) at 37° C. for 48 hours for periodontal disease bacteria or for 18 to 24 hours for caries bacteria. […]

[3] = test system: dental bacteria (periodontal disease bacteria and caries bacteria); assay: MIC to dental bacteria, summary over all strains; format: cell-based
Description: as §1
MIC of the indigo-plant extract, tirptanthrin, gallic acid and caffeic acid was determined according to the standard method of Japanese Society of Chemotherapy (q.v. “Saikin-Shinkin Kensa” (Second edition), issued by Japan Public Health Association, pp. 524-529 (1982)). […]

A. actinomycetemcomitans [4] = assay: MIC to dental bacteria, agar plate dilution; format: cell-based, Actinobacillus actinomycetemcomitans; settings: Aggregatibacter actinomycetemcomitans; remark: listed apart in the source
[5] = test system: B16 melanoma cells of mouse; assay: Effect of polygonaceous plant extracts on melanin production, blackening of cells (Experiment 1); format: cell-based; as to Efficacy (suppression of blackening of cells): key: −: Not changed; ±: Slightly suppressing blackening; +: Moderately suppressing blackening; ++: Significantly suppressing blackening; +++: Completely suppressing blackening
Description: The following experiment was carried out to investigate the effect of extract of polygonaceous plants on melanin production. After 2.2×10^5 of B16 melanoma cells of mouse were cultured by conventional method for 24 hours, the medium was added with indigo-plant extract to give a concentration of 1.25% or 2.5%, then they were cultured for additional 72 hours. After the number of the living cells was counted, color of the cells packed in capillary was observed. Using a medium added with any one of the extract of Japanese knotweed, buckwheat and knotgrass prepared by the same method of Example 1 described later to give a concentration of 2.5%, or added with koji acid to give a concentration of 2.5 mM as control, the B16 melanoma cells were cultured by the same manner as using indigo-plant extract. Then the colors of the cells were observed by the same manner as using indigo-plant extract. The degree of blackening of B16 melanoma cells was evaluated by the criterion described below.

B16 melanoma cells = assay: Cytotoxicity to B16 melanoma cells; format: cell-based, mouse; settings: 0.5 μg/ml
[6] = content 3.0% together with 1.25% indigo-plant extract
[7] = strain JMC2434, read-out: Minimum Inhibitory Concentration (MIC)
[8] = strain JMC8577, read-out: Minimum Inhibitory Concentration (MIC)
[9] = strain B-13D, read-out: Minimum Inhibitory Concentration (MIC)
[10] = strain Ingbritt, read-out: Minimum Inhibitory Concentration (MIC)
[11] = strain OMZ-61, read-out: Minimum Inhibitory Concentration (MIC)
[12] = strain OMZ-65, read-out: Minimum Inhibitory Concentration (MIC)
[13] = strain OMZ-175, read-out: Minimum Inhibitory Concentration (MIC)
[14] = strain OMZ-176, read-out: Minimum Inhibitory Concentration (MIC)
[15] = strain JMC8525, read-out: Minimum Inhibitory Concentration (MIC)
[16] = strain JMC12257, read-out: Minimum Inhibitory Concentration (MIC)
[17] = strain JMC33277, read-out: Minimum Inhibitory Concentration (MIC)
[18] = content 0.5% together with 1.25% indigo-plant extract
[19] = content 1.0% together with 1.25% indigo-plant extract

CCCCc1ccc(O)cc1O [4-n-Butylresorcinol]
Efficacy with 1.25% of indigo-plant extract [1, 6]: +++ | Efficacy without indigo-plant extract ([1]; content 3.0%): +

OC[C@H]1O[C@@H](Oc2ccc(O)cc2)[C@H](O)[C@@H](O)[C@@H]1O [Arbutin, hydroquinone-β-D-glucoside]
Efficacy with 1.25% of indigo-plant extract ([1]; content 5.0% together with 1.25% indigo-plant extract): +++ | Efficacy without indigo-plant extract ([1]; content 5.0%): +

O=C(O)/C=C/c1ccc(O)c(O)c1 [Caffeic acid, caffeic acid]
MIC (A. actinomycetemcomitans [2]; [7]): 400 µg/mL (≈ 2220 µM) | MIC (A. actinomycetemcomitans [2]; [8]): 200 µg/mL (≈ 1110 µM) | MIC (C. rectus; strain JMC6301): 100 µg/mL (≈ 555 µM) | MIC (P. intermedia; strain JMC7365): 400 µg/mL (≈ 2220 µM) | MIC (S. mutans; [9]): 200 µg/mL (≈ 1110 µM) | MIC (S. mutans; [10]): 1600 µg/mL (≈ 8880 µM) | MIC (S. mutans; [11]): 400 µg/mL (≈ 2220 µM) | MIC (S. mutans; [12]): 200 µg/mL (≈ 1110 µM) | MIC (S. mutans; [13]): 400 µg/mL (≈ 2220 µM) | MIC (S. mutans; [14]): 800 µg/mL (≈ 4440 µM) | MIC (S. sobrinus; strain 6715): 800 µg/mL (≈ 4440 µM) | Antimicrobial activity (in words) [3]: no antimicrobial activity | MIC (A. actinomycetemcomitans [4]; [15]): 400 µg/mL (≈ 2220 µM) | MIC (A. actinomycetemcomitans [4]; [16]): 400 µg/mL (≈ 2220 µM) | MIC (A. actinomycetemcomitans [4]; [17]): 400 µg/mL (≈ 2220 µM)

O=c1oc2c(O)c(O)cc3c(=O)oc4c(O)c(O)cc1c4c23 [Ellagic acid]
Efficacy with 1.25% of indigo-plant extract [1, 18]: ++ | Efficacy without indigo-plant extract ([1]; content 0.5%): ±

O=C(O)c1cc(O)c(O)c(O)c1 [Gallic acid, gallic acid]
MIC (A. actinomycetemcomitans [2]; [7]): 800 µg/mL (≈ 4700 µM) | MIC (A. actinomycetemcomitans [2]; [8]): 800 µg/mL (≈ 4700 µM) | MIC (C. rectus; strain JMC6301): 400 µg/mL (≈ 2350 µM) | MIC (P. intermedia; strain JMC7365): 400 µg/mL (≈ 2350 µM) | MIC (S. mutans; [9]): 200 µg/mL (≈ 1180 µM) | MIC (S. mutans; [10]): 1600 µg/mL (≈ 9410 µM) | MIC (S. mutans; [11]): 200 µg/mL (≈ 1180 µM) | MIC (S. mutans; [12]): 1600 µg/mL (≈ 9410 µM) | MIC (S. mutans; [13]): 400 µg/mL (≈ 2350 µM) | MIC (S. mutans; [14]): 400 µg/mL (≈ 2350 µM) | MIC (S. sobrinus; strain 6715): 800 µg/mL (≈ 4700 µM) | MIC (A. actinomycetemcomitans [4]; [15]): 400 µg/mL (≈ 2350 µM) | MIC (A. actinomycetemcomitans [4]; [16]): 400 µg/mL (≈ 2350 µM) | MIC (A. actinomycetemcomitans [4]; [17]): 400 µg/mL (≈ 2350 µM)

CCCCC/C=C\C/C=C\CCCCCCCC(=O)O [Linoleic acid]
Efficacy with 1.25% of indigo-plant extract [1, 18]: ++ | Efficacy without indigo-plant extract ([1]; content 0.5%): ±

COc1ccc(C(=O)[O-])c(O)c1.[K+] [Potassium 4-methoxysalicylate]
Efficacy with 1.25% of indigo-plant extract [1, 19]: +++ | Efficacy without indigo-plant extract ([1]; content 1.0%): +

O=C1O[C@H]([C@@H](O)CO)C([O-])=C1O.[Na+] [Sodium L-ascorbate]
Efficacy with 1.25% of indigo-plant extract [1, 6]: +++ | Efficacy without indigo-plant extract ([1]; content 3.0%): +

COc1cc(CCC(=O)CC(=O)CCc2ccc(O)c(OC)c2)ccc1O [Tetrahydrocurcumin]
Efficacy with 1.25% of indigo-plant extract [1, 18]: ++ | Efficacy without indigo-plant extract ([1]; content 0.5%): ±

NC[C@H]1CC[C@H](C(=O)O)CC1 [Tranexamic acid]
Efficacy with 1.25% of indigo-plant extract [1, 19]: ++ | Efficacy without indigo-plant extract ([1]; content 1.0%): ±

O=c1cc(CO)occ1O [koji acid]
Efficacy (suppression of blackening of cells) ([5]; medium containing 2.5 mM, cultured 72 hours): + | Efficacy with 1.25% of indigo-plant extract [1, 19]: +++ | Efficacy without indigo-plant extract ([1]; content 1.0%): +

O=C1c2ccccc2-n2c1nc1ccccc1c2=O [tryptanthrin]
Melanin production ([5]; 0.5 μg/ml or more used instead of the indigo-plant extract): melanin production was suppressed although the effect was lower than the one of indigo-plant extract | Cytotoxicity (B16 melanoma cells): no cytotoxity to B16 melanoma cells was observed | MIC (A. actinomycetemcomitans [2]; read-out: Minimum Inhibitory Concentration (MIC), strain JMC2434): 25 µg/mL (≈ 101 µM) | MIC (A. actinomycetemcomitans [2]; read-out: Minimum Inhibitory Concentration (MIC), strain JMC8525): 6.25 µg/mL (≈ 25.2 µM) | MIC (A. actinomycetemcomitans [2]; read-out: Minimum Inhibitory Concentration (MIC), strain JMC8577): 25 µg/mL (≈ 101 µM) | MIC (C. rectus): 25 µg/mL (≈ 101 µM) | MIC (P. intermedia): 6.25 µg/mL (≈ 25.2 µM) | MIC (S. mutans; read-out: Minimum Inhibitory Concentration (MIC), strain B-13D): 6.25 µg/mL (≈ 25.2 µM) | MIC (S. mutans; read-out: Minimum Inhibitory Concentration (MIC), strain Ingbritt): 25 µg/mL (≈ 101 µM) | MIC (S. mutans; read-out: Minimum Inhibitory Concentration (MIC), strain OMZ-61): 6.25 µg/mL (≈ 25.2 µM) | MIC (S. mutans; read-out: Minimum Inhibitory Concentration (MIC), strain OMZ-65): 12.5 µg/mL (≈ 50.4 µM) | MIC (S. mutans; read-out: Minimum Inhibitory Concentration (MIC), strain OMZ-175): 6.25 µg/mL (≈ 25.2 µM) | MIC (S. mutans; read-out: Minimum Inhibitory Concentration (MIC), strain OMZ-176): 12.5 µg/mL (≈ 50.4 µM) | MIC (S. sobrinus): 25 µg/mL (≈ 101 µM) | MIC (A. actinomycetemcomitans [4]; read-out: Minimum Inhibitory Concentration (MIC), strain JMC12257): 12.5 µg/mL (≈ 50.4 µM) | MIC (A. actinomycetemcomitans [4]; read-out: Minimum Inhibitory Concentration (MIC), strain JMC33277): 12.5 µg/mL (≈ 50.4 µM)
